{"source": "ChEMBL document CHEMBL5303573", "about": "“Mapping human microbiome drug metabolism by gut bacteria and their genes” (Nature, 2019)"}
{"experiment": "The drug is tested on Collinsella intestinalis strain: DSM13280 for biotransformation. The drug concentrations were measured before and after a 12-h incubation by liquid-chromatography-coupled mass spectrometry (LC–MS)", "settings": "2 µM"}
{"smiles": "CN(C)CCC=C1c2ccccc2COc2ccccc21", "note": "[DOXEPIN]", "Bacterial Biotransformation": "Compound NOT metabolized"}
{"smiles": "Cc1cc2c(s1)Nc1ccccc1N=C2N1CCN(C)CC1", "note": "[OLANZAPINE]", "Bacterial Biotransformation": "Compound NOT metabolized"}
{"settings": "bacteroides stercoris, 12 h, 2 µM", "description": "The drug is tested on Bacteroides stercoris strain: ATCC43183 for biotransformation. The drug concentrations were measured before and after a 12-h incubation by liquid-chromatography-coupled mass spectrometry (LC–MS)"}
{"smiles": "CN(C)CCC=C1c2ccccc2COc2ccccc21", "note": "[DOXEPIN]", "Bacterial Biotransformation": "Compound NOT metabolized"}
{"smiles": "Cc1cc2c(s1)Nc1ccccc1N=C2N1CCN(C)CC1", "note": "[OLANZAPINE]", "Bacterial Biotransformation": "Compound NOT metabolized"}
{"experiment": "The drug is tested on Bacteroides coprophilus strain: DSM18228 for biotransformation. The drug concentrations were measured before and after a 12-h incubation by liquid-chromatography-coupled mass spectrometry (LC–MS)", "settings": "2 µM"}
{"smiles": "CN(C)CCC=C1c2ccccc2COc2ccccc21", "note": "[DOXEPIN]", "Bacterial Biotransformation": "Compound NOT metabolized"}
{"smiles": "Cc1cc2c(s1)Nc1ccccc1N=C2N1CCN(C)CC1", "note": "[OLANZAPINE]", "Bacterial Biotransformation": "Compound metabolized"}
{"experiment": "The drug is tested on Blautia luti strain: DSM14534 for biotransformation. The drug concentrations were measured before and after a 12-h incubation by liquid-chromatography-coupled mass spectrometry (LC–MS)", "type": "ADME", "set-up": "dose 2 uM, timepoint 0 vs 12 hours", "settings": "2 µM"}
{"smiles": "CN(C)CCC=C1c2ccccc2COc2ccccc21", "note": "[DOXEPIN]", "Bacterial Biotransformation": "Compound NOT metabolized"}
{"smiles": "Cc1cc2c(s1)Nc1ccccc1N=C2N1CCN(C)CC1", "note": "[OLANZAPINE]", "Bacterial Biotransformation": "Compound NOT metabolized"}
{"experiment": "The drug is tested on Ruminococcus torques strain: ATCC27756 for biotransformation. The drug concentrations were measured before and after a 12-h incubation by liquid-chromatography-coupled mass spectrometry (LC–MS)", "type": "ADME", "set-up": "dose 2 uM, timepoint 0 vs 12 hours", "settings": "2 µM"}
{"smiles": "CN(C)CCC=C1c2ccccc2COc2ccccc21", "note": "[DOXEPIN]", "Bacterial Biotransformation": "Compound NOT metabolized"}
{"smiles": "Cc1cc2c(s1)Nc1ccccc1N=C2N1CCN(C)CC1", "note": "[OLANZAPINE]", "Bacterial Biotransformation": "Compound NOT metabolized"}
{"experiment": "The drug is tested on Parabacteroides merdae strain: ATCC43184 for biotransformation. The drug concentrations were measured before and after a 12-h incubation by liquid-chromatography-coupled mass spectrometry (LC–MS)", "settings": "2 µM"}
{"smiles": "CN(C)CCC=C1c2ccccc2COc2ccccc21", "note": "[DOXEPIN]", "Bacterial Biotransformation": "Compound NOT metabolized"}
{"experiment": "The drug is tested on Eubacterium rectale strain: ATCC33656 for biotransformation. The drug concentrations were measured before and after a 12-h incubation by liquid-chromatography-coupled mass spectrometry (LC–MS)", "settings": "agathobacter rectalis, 2 µM"}
{"smiles": "CN(C)CCC=C1c2ccccc2COc2ccccc21", "note": "[DOXEPIN]", "Bacterial Biotransformation": "Compound NOT metabolized"}
{"smiles": "Cc1cc2c(s1)Nc1ccccc1N=C2N1CCN(C)CC1", "note": "[OLANZAPINE]", "Bacterial Biotransformation": "Compound NOT metabolized"}
{"experiment": "The drug is tested on Bacteroides ovatus strain: ATCC8483 for biotransformation. The drug concentrations were measured before and after a 12-h incubation by liquid-chromatography-coupled mass spectrometry (LC–MS)", "settings": "2 µM"}
{"smiles": "CN(C)CCC=C1c2ccccc2COc2ccccc21", "note": "[DOXEPIN]", "Bacterial Biotransformation": "Compound NOT metabolized"}
{"experiment": "The drug is tested on Bacteroides fragilis strain: HMW610 for biotransformation. The drug concentrations were measured before and after a 12-h incubation by liquid-chromatography-coupled mass spectrometry (LC–MS)", "settings": "2 µM"}
{"smiles": "CN(C)CCC=C1c2ccccc2COc2ccccc21", "note": "[DOXEPIN]", "Bacterial Biotransformation": "Compound NOT metabolized"}
{"smiles": "Cc1cc2c(s1)Nc1ccccc1N=C2N1CCN(C)CC1", "note": "[OLANZAPINE]", "Bacterial Biotransformation": "Compound metabolized"}
{"settings": "enterocloster bolteae, 12 h, 2 µM", "description": "The drug is tested on Clostridium bolteae strain: ATCCBAA-613 for biotransformation. The drug concentrations were measured before and after a 12-h incubation by liquid-chromatography-coupled mass spectrometry (LC–MS)"}
{"smiles": "CN(C)CCC=C1c2ccccc2COc2ccccc21", "note": "[DOXEPIN]", "Bacterial Biotransformation": "Compound NOT metabolized"}
{"smiles": "Cc1cc2c(s1)Nc1ccccc1N=C2N1CCN(C)CC1", "note": "[OLANZAPINE]", "Bacterial Biotransformation": "Compound NOT metabolized"}
{"experiment": "The drug is tested on Bacteroides pectinophilus strain: ATCC43243 for biotransformation. The drug concentrations were measured before and after a 12-h incubation by liquid-chromatography-coupled mass spectrometry (LC–MS)", "settings": "2 µM"}
{"smiles": "Cc1cc2c(s1)Nc1ccccc1N=C2N1CCN(C)CC1", "note": "[OLANZAPINE]", "Bacterial Biotransformation": "Compound NOT metabolized"}
{"experiment": "The drug is tested on Dorea formicigenerans strain: ATCC27755 for biotransformation. The drug concentrations were measured before and after a 12-h incubation by liquid-chromatography-coupled mass spectrometry (LC–MS)", "settings": "2 µM"}
{"smiles": "CN(C)CCC=C1c2ccccc2COc2ccccc21", "note": "[DOXEPIN]", "Bacterial Biotransformation": "Compound NOT metabolized"}
{"smiles": "Cc1cc2c(s1)Nc1ccccc1N=C2N1CCN(C)CC1", "note": "[OLANZAPINE]", "Bacterial Biotransformation": "Compound NOT metabolized"}
{"experiment": "The drug is tested on Coprococcus comes strain: ATCC27758 for biotransformation. The drug concentrations were measured before and after a 12-h incubation by liquid-chromatography-coupled mass spectrometry (LC–MS)", "type": "ADME", "set-up": "dose 2 uM, timepoint 0 vs 12 hours", "settings": "2 µM"}
{"smiles": "CN(C)CCC=C1c2ccccc2COc2ccccc21", "note": "[DOXEPIN]", "Bacterial Biotransformation": "Compound NOT metabolized"}
{"smiles": "Cc1cc2c(s1)Nc1ccccc1N=C2N1CCN(C)CC1", "note": "[OLANZAPINE]", "Bacterial Biotransformation": "Compound NOT metabolized"}
{"experiment": "The drug is tested on Subdoligranulum variabile strain: DSM15176 for biotransformation. The drug concentrations were measured before and after a 12-h incubation by liquid-chromatography-coupled mass spectrometry (LC–MS)", "settings": "2 µM"}
{"smiles": "CN(C)CCC=C1c2ccccc2COc2ccccc21", "note": "[DOXEPIN]", "Bacterial Biotransformation": "Compound NOT metabolized"}
{"smiles": "Cc1cc2c(s1)Nc1ccccc1N=C2N1CCN(C)CC1", "note": "[OLANZAPINE]", "Bacterial Biotransformation": "Compound NOT metabolized"}
{"experiment": "The drug is tested on Edwardsiella tarda strain: ATCC23685 for biotransformation. The drug concentrations were measured before and after a 12-h incubation by liquid-chromatography-coupled mass spectrometry (LC–MS)", "settings": "2 µM"}
{"smiles": "CN(C)CCC=C1c2ccccc2COc2ccccc21", "note": "[DOXEPIN]", "Bacterial Biotransformation": "Compound NOT metabolized"}
{"smiles": "Cc1cc2c(s1)Nc1ccccc1N=C2N1CCN(C)CC1", "note": "[OLANZAPINE]", "Bacterial Biotransformation": "Compound NOT metabolized"}
{"experiment": "The drug is tested on Alistipes indistinctus strain: DSM22520 for biotransformation. The drug concentrations were measured before and after a 12-h incubation by liquid-chromatography-coupled mass spectrometry (LC–MS)", "settings": "2 µM"}
{"smiles": "CN(C)CCC=C1c2ccccc2COc2ccccc21", "note": "[DOXEPIN]", "Bacterial Biotransformation": "Compound NOT metabolized"}
{"smiles": "Cc1cc2c(s1)Nc1ccccc1N=C2N1CCN(C)CC1", "note": "[OLANZAPINE]", "Bacterial Biotransformation": "Compound NOT metabolized"}
{"experiment": "The drug is tested on Clostridium symbiosum strain: ATCC14940 for biotransformation. The drug concentrations were measured before and after a 12-h incubation by liquid-chromatography-coupled mass spectrometry (LC–MS)", "settings": "2 µM"}
{"smiles": "CN(C)CCC=C1c2ccccc2COc2ccccc21", "note": "[DOXEPIN]", "Bacterial Biotransformation": "Compound NOT metabolized"}
{"smiles": "Cc1cc2c(s1)Nc1ccccc1N=C2N1CCN(C)CC1", "note": "[OLANZAPINE]", "Bacterial Biotransformation": "Compound NOT metabolized"}
